# From paper PMC11481913, “Rational design of a flavoenzyme for aerobic nicotine catabolism” (mBio, 2024)
# Target: T1, Pnao (Pseudomonas putida, UniProt F8G0P1)
# T1 construct: dimer
# Assay: FAD reduction at […] nm (stopped-flow); FAD-binding ratio by HPLC
# Details: FAD co-purified with the enzyme
# T1 sequence (F8G0P1 whole entry): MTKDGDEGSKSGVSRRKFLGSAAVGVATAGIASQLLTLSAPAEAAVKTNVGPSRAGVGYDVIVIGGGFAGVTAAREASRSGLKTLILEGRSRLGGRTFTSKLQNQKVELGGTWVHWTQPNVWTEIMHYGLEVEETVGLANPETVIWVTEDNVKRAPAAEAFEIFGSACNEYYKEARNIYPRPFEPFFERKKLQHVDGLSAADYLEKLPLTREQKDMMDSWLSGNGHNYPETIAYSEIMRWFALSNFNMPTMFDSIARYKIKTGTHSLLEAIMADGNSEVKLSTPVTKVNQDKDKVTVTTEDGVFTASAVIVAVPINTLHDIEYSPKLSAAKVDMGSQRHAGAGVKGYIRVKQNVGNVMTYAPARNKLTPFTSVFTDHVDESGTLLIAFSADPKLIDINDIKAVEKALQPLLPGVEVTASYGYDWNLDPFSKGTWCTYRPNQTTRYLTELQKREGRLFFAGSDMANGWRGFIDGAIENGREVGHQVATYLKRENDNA
compound,measurement,value
"Cc1cc2nc3c(=O)[nH]c(=O)nc-3n(C[C@H](O)[C@H](O)[C@H](O)COP(=O)(O)OP(=O)(O)OC[C@H]3O[C@@H](n4cnc5c(N)ncnc54)[C@H](O)[C@@H]3O)c2cc1C [FAD, flavin adenine dinucleotide]",FAD reduction at 450 nm (stopped-flow); FAD-binding ratio by HPLC,the enzyme-bound FAD is transformed from the oxidized to the hydroquinone
